Drawing on patent US6903086B2, “Alkoxycarbonylamino benzoic acid or alkoxycarbonylamino tetrazolyl phenyl derivatives as IP antagonists” (SYNTEX (U.S.A.) LLC, priority 2001, dated 2005), this text covers melting point for 15 molecules.

SMILES strings stand for the structures.

The molecule `O=C(Nc1cccc(Cl)c1C(=O)O)OCc1cc2cc(-c3cncnc3)ccc2o1` [compound 37, 2-chloro-6-(5-pyrimidin-5-yl-benzofuran-2-ylmethoxycarbonylamino)-benzoic acid] gave a melting point of 192.8 to 194.3 °C.
In the case of `O=C(Nc1ccc(-c2cccnc2)cc1C(=O)O)OCc1cc2cc(-c3ccc(F)cc3)ccc2o1` [compound 16, 2-[5-(4-fluoro-phenyl)-benzofuran-2-ylmethoxycarbonylamino]-5-pyridin-3-yl-benzoic acid] it was 225.7 to 229.3 °C; in that of `O=C(Nc1ccc(-c2ccc(F)cc2)cc1C(=O)O)OCc1cc2cc(-c3cccnc3)ccc2o1` [compound 34, 4′-fluoro-4-(5-pyridin-3-yl-benzofuran-2-ylmethoxycarbonylamino)-biphenyl-3-carboxylic acid], 237.1 to 237.5 °C; in that of `COc1cccc(NC(=O)OCc2cc3cc(-c4ccc(F)cc4)ccc3o2)c1C(=O)O` [compound 29, 2-[5-(4-fluoro-phenyl)-benzofuran-2-ylmethoxycarbonylamino]-6-methoxy-benzoic acid], 160.5 to 164.3 °C.
Under `O=C(Nc1cccc(Cl)c1C(=O)O)OCc1cc2cc(-c3cccnc3)ccc2o1` [compound 36, 2-chloro-6-(5-pyridin-3-yl-benzofuran-2-ylmethoxycarbonylamino)-benzoic acid] stands 172 to 174 °C; under `O=C(Nc1ccccc1-c1nnn[nH]1)OCc1cc2cc(-c3ccc(F)cc3)ccc2o1` [compound 503, [2-(1H-tetrazol-5-yl)-phenyl]-carbamic acid 5-(4-fluoro-phenyl)-benzofuran-2-ylmethyl ester], 155 to 158 °C; under `O=C(Nc1ccccc1C(=O)O)OCc1cc2cc(-c3ccccc3)ccc2o1` [compound 17, 2-(5-phenyl-benzofuran-2-ylmethoxycarbonylamino)-benzoic acid], 203.6 to 203.8 °C.
In the case of `O=C(Nc1cc(-c2ccccc2)ccc1C(=O)O)OCc1cc2cc(-c3ccccc3)ccc2o1` [compound 11, 3-(5-phenyl-benzofuran-2-ylmethoxycarbonylamino)-biphenyl-4-carboxylic acid] it was 229.5 to 230 °C; in that of `CS(=O)(=O)c1ccc(NC(=O)OCc2cc3cc(-c4ccccc4)ccc3o2)c(C(=O)O)c1` [compound 20, 5-methanesulfonyl-2-(5-phenyl-benzofuran-2-ylmethoxycarbonylamino)-benzoic acid], 234 to 235 °C; in that of `O=C(Nc1ccccc1-c1nnn[nH]1)OCc1cc2cc(-c3ccccc3)ccc2o1` [compound 508, [2-(1H-tetrazol-5-yl)-phenyl]-carbamic acid 5-phenyl-benzofuran-2-ylmethyl ester], 213 to 216.5 °C.
Consider `O=C(Nc1cccc(Br)c1C(=O)O)OCc1cc2cc(-c3ccc(F)cc3)ccc2o1` [compound 42, 2-bromo-6-[5-(4-fluoro-phenyl)-benzofuran-2-ylmethoxycarbonylamino]-benzoic acid], for which the melting point fell in the range of 170.6 to 172 °C.
Under `O=C(Nc1ccc(Cl)cc1C(=O)O)OCc1cc2cc(-c3ccc(F)cc3)ccc2o1` [compound 24, 5-chloro-2-[5-(4-fluoro-phenyl)-benzofuran-2-ylmethoxycarbonylamino]-benzoic acid] stands 216.7 to 217.3 °C; under `Cc1ccc(NC(=O)OCc2cc3cc(-c4ccsc4)ccc3o2)c(C(=O)O)c1` [compound 31, 5-methyl-2-(5-thiophen-3-yl-benzofuran-2-ylmethoxycarbonylamino)-benzoic acid], 213.2 to 215.1 °C; under `O=C(Nc1ccc(-c2ccccc2)cc1C(=O)O)OCc1ccc(-c2ccccc2)cc1` [compound 601, 4-(biphenyl-4-ylmethoxycarbonylamino)-biphenyl-3-carboxylic acid], 234.5 to 235.6 °C.
In the case of `O=C(Nc1ccc(-c2ccc(F)cc2)cc1C(=O)O)OCc1cc2cc(-c3ccccc3)ccc2o1` [compound 12, 4′-fluoro-4-(5-phenyl-benzofuran-2-ylmethoxycarbonylamino)-biphenyl-3-carboxylic acid] it was 229.4 to 229.6 °C.
